According to PMC11790914, “Chemogenomics for steroid hormone receptors (NR3)” (Communications Chemistry, 2025):
Values joined by “and” are separate entries in the source; they are usually repeats but may differ in a detail not shown here. Equal values may be shown once.

Legend:
[1] = test system: Gal4-VP16; format: cell-based; conditions: 1 µM
[2] = molecular target: T1, ABL1 (Homo sapiens, UniProt P00519); assay: Liability panel screening by DSF: ABL1; format: binding; conditions: DSF, 20 µM, n=2; read-out: Mean ΔTM ABL1
T1 construct: made in house
Method in brief: (§1)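 Thermal shift: in-house recombinant protein at 2 µM in 10 mM HEPES pH 7.5 with 500 mM NaCl, SYPRO Orange 1:1000, heated at 3 °C/min to 85 °C in technical duplicates. Tm is the Boltzmann inflection point, reported as ∆Tm in K.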

[3] = molecular target: T2, AURKA (Homo sapiens, UniProt O14965); assay: Liability panel screening by DSF: AURKA; format: binding; conditions: DSF, 20 µM, n=2; read-out: Mean ΔTM AURKA
T2 construct: made in house
T2 sequence (O14965 1-403): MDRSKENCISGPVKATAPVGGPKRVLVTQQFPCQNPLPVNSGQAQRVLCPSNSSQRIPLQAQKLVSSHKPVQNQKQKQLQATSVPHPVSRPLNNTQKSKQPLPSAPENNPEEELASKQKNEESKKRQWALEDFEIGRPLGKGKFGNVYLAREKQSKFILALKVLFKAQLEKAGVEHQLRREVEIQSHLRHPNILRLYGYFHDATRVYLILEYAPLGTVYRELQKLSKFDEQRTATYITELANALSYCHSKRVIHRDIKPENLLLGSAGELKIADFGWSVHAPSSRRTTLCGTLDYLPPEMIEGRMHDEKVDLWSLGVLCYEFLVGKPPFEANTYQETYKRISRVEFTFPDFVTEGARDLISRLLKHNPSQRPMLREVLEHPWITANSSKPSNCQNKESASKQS
Method in brief: as §1

[4] = molecular target: T3, CDK2 (Homo sapiens, UniProt P24941); assay: Liability panel screening by DSF: CDK2; format: binding; conditions: DSF, 20 µM, n=2; read-out: Mean ΔTM CDK2
T3 construct: made in house
Method in brief: as §1

[5] = molecular target: T4, GSK3B (Homo sapiens, UniProt P49841); assay: Liability panel screening by DSF: GSK3B; format: binding; conditions: DSF, 20 µM, n=2; read-out: Mean ΔTM GSK3B
T4 construct: made in house

[6] = molecular target: T5, BRPF1 (Homo sapiens, UniProt P55201); assay: Liability panel screening by DSF: BRPF1; format: binding; conditions: DSF, 20 µM, n=2; read-out: Mean ΔTM BRPF1
T5 construct: This panel comprised ten highly ligandable kinases and bromodomains; made in house
T5 sequence (P55201 628-732 limits assumed): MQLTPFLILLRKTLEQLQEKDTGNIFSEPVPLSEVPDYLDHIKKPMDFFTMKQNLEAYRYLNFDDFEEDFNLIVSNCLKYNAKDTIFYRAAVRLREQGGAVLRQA
Method in brief: as §1

[7] = molecular target: T6, CSNK1D (Homo sapiens, UniProt P48730); assay: Liability panel screening by DSF: CSNK1D; format: binding; conditions: DSF, 20 µM, n=2; read-out: Mean ΔTM CSNK1D
T6 construct: made in house
Method in brief: as §1

[8] = molecular target: T7, MAPK1 (Homo sapiens, UniProt P28482); assay: Liability panel screening by DSF: MAPK1; format: binding; conditions: DSF, 20 µM, n=2; read-out: Mean ΔTM MAPK1
T7 construct: made in house
Method in brief: as §1

[9] = molecular target: T8, TRIM24 (Homo sapiens, UniProt O15164); assay: Liability panel screening by DSF: TRIM24; format: binding; conditions: DSF, 20 µM, n=2; read-out: Mean ΔTM TRIM24
T8 construct: This panel comprised ten highly ligandable kinases and bromodomains; made in house
T8 sequence (O15164 899-1004 limits assumed): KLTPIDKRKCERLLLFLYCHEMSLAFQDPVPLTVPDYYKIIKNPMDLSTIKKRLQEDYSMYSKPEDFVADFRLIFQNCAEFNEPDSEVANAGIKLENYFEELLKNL
Method in brief: as §1

[10] = test system: HEK293T cells; assay: Cytotoxicity: growth-rate (change in confluence over 24 h); conditions: normalized to 0.1% DMSO control, single replicates (n=1...)
Procedure: Cells were incubated with the test compounds at the indicated concentrations solubilized with 0.1% DMSO for 24 h. Growth-rate was determined based on the change in confluence over 24 h normalized to the change in confluence of cells treated with the 0.1% DMSO control (n = 10). Metabolic activity was determined with a water-soluble tetrazolium-8 (WST-8) assay (n = 8) after 24 h treatment. Apoptotic cells were detected with a fluorogenic DNA dye coupled to the caspase-3/7 recognition sequence (DEVD) after 24 h treatment and the apoptotic cell count was normalized to 0.1% DMSO treated cells (n = 6).
HEK293T cells (German Collection of Microorganisms and Cell Culture GmbH, DSMZ; #ACC305) were cultured in DMEM high glucose, supplemented with 10% fetal calf serum (FCS), sodium pyruvate (1 mM), penicillin (100 µ/mL) and streptomycin (100 µg/mL) at 37 °C and 5% (v/v) CO2, and seeded in pre-coated (10 µg/mL collagen G solution (Merck KgaA; #L7213) for 30 min at 37 °C) 96-well plates (2 × 10^5 cells per well). After 24 h, the cells were treated with the respective NR3 CG compound candidate at the recommended concentration, bexarotene (100 µM) or doxorubicin (30 µM) as positive controls in DMEM high glucose supplemented with 0.1% FCS, penicillin (100 µ/mL), streptomycin (100 µg/mL) and 0.1% DMSO, or 0.1% DMSO alone as an untreated control. Each sample was prepared in at least four biologically independent replicates. […] Thereafter, the medium was aspirated and the cells were incubated for 3 h with 90 µL DMEM high glucose supplemented with 0.2% FCS, penicillin (100 µ/mL) and streptomycin (100 µg/mL) and additionally containing 10 µL Cell Counting Kit 8 solution (CCK-8; MedChemExpress, Monmouth Junction, New York, USA; #HY-K0301), and absorbance was measured at 1 h, 2 h and 3 h of incubation at 450 nm on a Tecan Spark Cyto to assess metabolic activity of the cells. Before drug administration, after the first medium exchange, 24 h after drug administration, and after fluorescence imaging cell confluence was assessed using the Tecan Spark Cyto, to account for changes in cell confluence due to drug administration and cell handling. Compound effects on cell confluence, apoptosis, metabolic activity and necrosis were normalized to the vehicle control of each biological replicate individually.

[11] = test system: HEK293T cells; assay: Cytotoxicity: apoptosis induction (caspase-3/7 DEVD fluorogenic DNA dye); conditions: single replicates
[12] = test system: NF-κB activity in HEK293 NF-κB reporter cells; assay: NF-kB activity assay (GFP reporter, ionomycin/PMA); format: cell-based; conditions: n=3
Method in brief: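 Reporter readout: GFP-expressing cells normalized to confluence, imaged every 90 min across 24 h after ionomycin (100 ng/mL)/PMA (10 ng/mL) stimulation of HEK293 cells pre-treated 4 h with compound (0.1% DMSO); triplicate independent experiments.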

[13] = test system: ATF6 activity in Hela ATF6 reporter cells; assay: Endoplasmic reticulum stress assay (ATF6 Renilla luciferase reporter, tunicamycin); format: cell-based; conditions: Homo sapiens, HeLa, 3 µM, single replicates n=1 to n=5; read-out: ER stress [rel. ATF6 activity]
Method in brief: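 ER stress was induced by 100 ng/mL tunicamycin added 4 h after compound (0.1% DMSO) to HeLa ATF6 reporter cells. After 18 h more, Renilla luciferase signal was read and expressed relative to DMSO control, n=5 biological replicates.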

T6 sequence (P48730 whole entry, species assumed): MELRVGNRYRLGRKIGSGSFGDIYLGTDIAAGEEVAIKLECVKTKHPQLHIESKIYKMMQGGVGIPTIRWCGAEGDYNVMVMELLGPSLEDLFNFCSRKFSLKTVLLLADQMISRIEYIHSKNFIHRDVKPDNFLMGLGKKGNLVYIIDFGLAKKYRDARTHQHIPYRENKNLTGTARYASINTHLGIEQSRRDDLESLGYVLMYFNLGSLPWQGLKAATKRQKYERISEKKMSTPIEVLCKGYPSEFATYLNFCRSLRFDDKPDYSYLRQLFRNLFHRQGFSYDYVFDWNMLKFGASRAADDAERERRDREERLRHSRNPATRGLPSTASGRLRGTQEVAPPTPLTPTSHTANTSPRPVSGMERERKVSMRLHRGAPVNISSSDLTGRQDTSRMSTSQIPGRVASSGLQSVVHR
T7 sequence (P28482 whole entry, species assumed): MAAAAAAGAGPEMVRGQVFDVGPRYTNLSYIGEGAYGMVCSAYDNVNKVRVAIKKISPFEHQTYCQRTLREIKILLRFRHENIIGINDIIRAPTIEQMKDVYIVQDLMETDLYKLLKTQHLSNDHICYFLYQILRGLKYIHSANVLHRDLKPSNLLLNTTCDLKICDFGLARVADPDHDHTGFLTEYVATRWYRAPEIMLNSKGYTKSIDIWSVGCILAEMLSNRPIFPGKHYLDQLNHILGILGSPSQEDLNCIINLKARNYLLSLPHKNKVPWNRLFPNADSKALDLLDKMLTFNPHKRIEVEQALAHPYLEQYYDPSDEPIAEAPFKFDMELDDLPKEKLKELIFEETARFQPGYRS
T1 sequence (P00519 whole entry, species assumed): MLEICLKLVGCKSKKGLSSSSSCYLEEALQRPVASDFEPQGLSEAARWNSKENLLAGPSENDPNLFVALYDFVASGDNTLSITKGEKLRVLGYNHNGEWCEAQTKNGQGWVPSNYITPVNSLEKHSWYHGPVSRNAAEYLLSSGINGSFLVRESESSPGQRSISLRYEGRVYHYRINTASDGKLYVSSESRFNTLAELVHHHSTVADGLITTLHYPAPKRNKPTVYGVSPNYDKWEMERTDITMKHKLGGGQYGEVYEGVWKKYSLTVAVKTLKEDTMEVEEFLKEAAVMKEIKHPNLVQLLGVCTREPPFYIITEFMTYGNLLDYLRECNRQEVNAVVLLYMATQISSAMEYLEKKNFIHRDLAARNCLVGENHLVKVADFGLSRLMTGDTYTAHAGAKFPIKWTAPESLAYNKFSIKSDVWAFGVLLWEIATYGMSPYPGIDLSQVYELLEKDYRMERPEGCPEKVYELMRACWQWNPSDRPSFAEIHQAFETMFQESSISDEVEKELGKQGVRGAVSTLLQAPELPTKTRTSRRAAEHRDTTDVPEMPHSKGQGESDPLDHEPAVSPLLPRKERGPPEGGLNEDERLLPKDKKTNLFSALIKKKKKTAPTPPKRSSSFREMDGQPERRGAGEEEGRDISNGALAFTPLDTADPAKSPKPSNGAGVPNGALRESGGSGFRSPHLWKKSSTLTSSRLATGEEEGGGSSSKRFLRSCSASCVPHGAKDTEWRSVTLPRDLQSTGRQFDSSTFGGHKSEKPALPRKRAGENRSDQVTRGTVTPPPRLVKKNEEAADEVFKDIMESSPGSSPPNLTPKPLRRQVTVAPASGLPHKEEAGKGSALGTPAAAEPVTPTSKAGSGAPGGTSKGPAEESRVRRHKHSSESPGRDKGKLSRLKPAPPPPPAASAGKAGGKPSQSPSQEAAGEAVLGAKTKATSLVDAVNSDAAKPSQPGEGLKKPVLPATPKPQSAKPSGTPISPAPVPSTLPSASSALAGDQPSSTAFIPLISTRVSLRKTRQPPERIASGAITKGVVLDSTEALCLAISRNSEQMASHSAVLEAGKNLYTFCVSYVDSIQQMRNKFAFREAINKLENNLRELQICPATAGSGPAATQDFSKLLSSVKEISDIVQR
T4 sequence (P49841 whole entry, species assumed): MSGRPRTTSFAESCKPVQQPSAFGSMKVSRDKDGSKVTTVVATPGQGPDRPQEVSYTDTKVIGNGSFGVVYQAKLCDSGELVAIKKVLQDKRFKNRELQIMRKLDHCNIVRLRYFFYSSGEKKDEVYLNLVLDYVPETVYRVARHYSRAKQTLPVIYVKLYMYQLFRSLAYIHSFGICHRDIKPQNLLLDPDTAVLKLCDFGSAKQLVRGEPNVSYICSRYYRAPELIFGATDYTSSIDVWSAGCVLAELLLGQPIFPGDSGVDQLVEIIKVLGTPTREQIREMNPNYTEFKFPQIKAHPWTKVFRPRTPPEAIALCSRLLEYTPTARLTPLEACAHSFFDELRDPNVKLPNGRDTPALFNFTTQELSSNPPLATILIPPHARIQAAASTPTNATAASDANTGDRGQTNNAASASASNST

SMILES: CC/C(=C(/c1ccc(/C=C/C(=O)O)cc1)c1ccc2[nH]ncc2c1)c1ccc(F)cc1Cl [ARN810]
- VP16 control [fold reporter gene activity] (n=3), n=1 ([1]; replicate n=1): 1.06 fold
- VP16 control [fold reporter gene activity] (n=3), n=2 ([1]; replicate n=2): 1.05 fold
- VP16 control [fold reporter gene activity] (n=3), n=3 ([1]; replicate n=3): 1.02 fold
- ΔTm at 20 µM [2]: -5.16 °C
- ΔTm at 20 µM [3]: 1.69 °C
- ΔTm at 20 µM [4]: -3.66 °C
- ΔTm at 20 µM [5]: 3.37 °C
- ΔTm at 20 µM [6]: 0 °C
- ΔTm at 20 µM [7]: -4.37 °C
- ΔTm at 20 µM [8]: 0 °C
- ΔTm at 20 µM [9]: 0 °C
- Growth rate [GR] ([10]; 1 µM): 0.88 and 0.90 and 1.13 and 0.87 and 1.11 and 0.85
- Apoptosis induction [AI] ([11]; 1 µM, DMSO 0.1% = 1.00): 0.78 and 0.92

SMILES: CC#C[C@]1(O)CC[C@H]2[C@@H]3CCC4=CC(=O)CCC4=C3[C@@H](c3ccc(N(C)C)cc3)C[C@@]21C [Mifepristone]
- ΔTm at 20 µM [2]: 0.11 °C
- ΔTm at 20 µM [3]: -1.55 °C
- ΔTm at 20 µM [4]: -0.0248 °C
- ΔTm at 20 µM [5]: -1.3 °C
- ΔTm at 20 µM [6]: -2.63 °C
- ΔTm at 20 µM [7]: 0.0217 °C
- ΔTm at 20 µM [8]: -0.7 °C
- ΔTm at 20 µM [9]: -0.92 °C
- Mean NFκB response ([12]; 3 µM, 1,5 h): 3613.33 GFP+-cells/confluence ∙ 1000
- Mean NFκB response ([12]; 3 µM, 4,5 h): 4100.00 GFP+-cells/confluence ∙ 1000
- Mean NFκB response ([12]; 3 µM, 7,5 h): 7536.67 GFP+-cells/confluence ∙ 1000
- Mean NFκB response ([12]; 3 µM, 10,5 h): 17493.33 GFP+-cells/confluence ∙ 1000
- Mean NFκB response ([12]; 3 µM, 13,5 h): 25396.67 GFP+-cells/confluence ∙ 1000
- Mean NFκB response ([12]; 3 µM, 16,6 h): 31560.00 GFP+-cells/confluence ∙ 1000
- Mean NFκB response ([12]; 3 µM, 19,5 h): 36246.67 GFP+-cells/confluence ∙ 1000
- Mean NFκB response ([12]; 3 µM, 22,5 h): 39496.67 GFP+-cells/confluence ∙ 1000
- Mean NFκB response ([12]; 3 µM, 3 h): 3656.67 GFP+-cells/confluence ∙ 1000
- Mean NFκB response ([12]; 3 µM, 6 h): 4860.00 GFP+-cells/confluence ∙ 1000
- Mean NFκB response ([12]; 3 µM, 9 h): 12946.67 GFP+-cells/confluence ∙ 1000
- Mean NFκB response ([12]; 3 µM, 12 h): 21246.67 GFP+-cells/confluence ∙ 1000
- Mean NFκB response ([12]; 3 µM, 15 h): 28726.67 GFP+-cells/confluence ∙ 1000
- Mean NFκB response ([12]; 3 µM, 18 h): 34060.00 GFP+-cells/confluence ∙ 1000
- Mean NFκB response ([12]; 3 µM, 21 h): 38440.00 GFP+-cells/confluence ∙ 1000
- Mean NFκB response ([12]; 3 µM, 24 h): 40840.00 GFP+-cells/confluence ∙ 1000
- activity at 3 µM [13]: 99%
- Growth rate [GR] ([10]; 3 µM): 0.65 and 3.36 and 0.73 and 0.97 and 1.04 and 0.86 and 1.00 and 1.72 and 1.53 and 3.99
- Apoptosis induction [AI] ([11]; 3 µM, HEK293T, 24 h, apoptotic cell count normalized to 0.1% DMSO): 1.09 and 1.02 and 1.10 and 1.15 and 0.56 and 0.53
